Source: patent publication US6699849B1, “Cyclodextrin complexes of benzodiazepines” (Cyclops, ehf., priority 1998, dated 2004)

What was measured:
[1] = Effect of pH and cyclodextrins on the fraction of the open form (diazepine ring-opening) of benzodiazepines; format: physicochemical
Description: The cyclodextrin concentration was 10% (w/v) and the benzodiazepine concentration was 1×10^−4 M. The concentration of the closed form was determined immediately after dissolving the benzodiazepine in the aqueous cyclodextrin solution and again 24 hours later (i.e. after equilibration at 23° C.). Preliminary experiments had shown that equilibrium between the closed and the open form was attained within 3 hours at 23° C.

[2] = First-order rate constant of diazepine ring-closure (regeneration of the benzodiazepine); format: physicochemical; conditions: pH 7.5, 37° C.
Description: The effect of cyclodextrins and organic solvents on the rate of diazepine ring-closure of several selected benzodiazepines was investigated. Stock solutions containing 1.0×10^−3 M of the benzodiazepine in 0.10 M aqueous hydrochloric acid solution (pH approx. 1.1) were prepared and stored at 37.0° C. The benzodiazepines were in the ring-open form in these stock solutions. Aqueous 0.50 M tris buffer (pH 7.50) solution was prepared. The observed first-order rate constant for the closing (i.e. formation) of the benzodiazepine ring was determined in the following reaction media: a) pure aqueous tris buffer solution; b) aqueous tris buffer solution containing 10% (w/v) cyclodextrin; c) tris buffer solution containing 10% (w/v) cyclodextrin and 10% (v/v) ethanol (EtOH); d) tris buffer solution containing 10% (w/v) cyclodextrin and 50% (v/v) EtOH; e) tris buffer solution containing 10% (w/v) cyclodextrin and 10% (v/v) dimethylsulfoxide (DMSO); and f) tris buffer solution containing 10% (w/v) cyclodextrin and 50% (w/v) DMSO. The stock solution (30 μl) was added to 1.50 ml of the reaction media which had previously been equilibrated to 37.0° C. and the first-order rate constant for the appearance of the closed form determined from the appearance of the closed form as observed on HPLC. Tables 5, 6 and 7 show the effects of cyclodextrins, EtOH and DMSO on the observed first-order rate constant for the regeneration of alprazolam, triazolam and midazolam, respectively. In pure aqueous buffer solutions, addition of EtOH and DMSO decreases somewhat the rate of ring closure, at least in the case of alprazolam and midazolam. Addition of cyclodextrin or the organic solvents have insignificant effect on the pH under these conditions. The dielectric constant of the reaction medium will, however, decrease upon addition of the organic solvents. It is possible that this decrease in the dielectric constant will reduce the ability of the reaction media to stabilize the transition state which could explain the decrease in the observed rate constant. […] The cyclodextrins formed stable complexes with the ring-open form of the drug and, thus, the rate decreased upon addition of cyclodextrin. […] EtOH and DMSO will compete with the diazepine ring-open form for a space in the cyclodextrin cavity resulting in decreased complexation.

[3] = Flux of alprazolam through hairless mouse skin in Franz diffusion cells
Description: Female hairless mice were sacrificed by cervical dislocation and their full-thickness skins removed. […] The skin was placed in Franz diffusion cells. The receptor phase consisted of phosphate buffer saline pH 7.4. The skin diffusion cells were stirred with a magnetic bar and kept at 37° C. by circulating water through an external jacket. […] The samples were kept frozen until analyzed by HPLC. The flux was calculated from the linear part of each permeability profile and the permeability coefficient obtained by dividing the flux with the concentration of dissolved drug in the donor phase.

[4] = 10% (w/v) HPβCD, pH 2, approx. 23° C.
[5] = 10% (w/v) HPβCD, pH 3, approx. 23° C.
[6] = 10% (w/v) HPβCD, pH 4, approx. 23° C.
[7] = 10% (w/v) SBEβCD, pH 2, approx. 23° C.
[8] = 10% (w/v) SBEβCD, pH 3, approx. 23° C.
[9] = 10% (w/v) SBEβCD, pH 4, approx. 23° C.
[10] = 10% (w/v) αCD, pH 2, approx. 23° C.
[11] = 10% (w/v) αCD, pH 3, approx. 23° C.
[12] = 10% (w/v) αCD, pH 4, approx. 23° C.
[13] = 10% (w/v) γCD, pH 2, approx. 23° C.
[14] = 10% (w/v) γCD, pH 3, approx. 23° C.
[15] = 10% (w/v) γCD, pH 4, approx. 23° C.
[16] = no cyclodextrin, pH 2, approx. 23° C.
[17] = no cyclodextrin, pH 3, approx. 23° C.
[18] = no cyclodextrin, pH 4, approx. 23° C.

Structure (SMILES) | Fraction open [1, 4] | Fraction open [1, 5] | Fraction open [1, 6] | Fraction open [1, 7] | Fraction open [1, 8] | Fraction open [1, 9] | Fraction open [1, 10] | Fraction open [1, 11] | Fraction open [1, 12] | Fraction open [1, 13] | Fraction open [1, 14] | Fraction open [1, 15] | Fraction open [1, 16] | Fraction open [1, 17] | Fraction open [1, 18] | observed first-order rate constant, ring formation ([2]; 10% HPβCD, 10% DMSO) [min⁻¹] | observed first-order rate constant, ring formation ([2]; 10% HPβCD, 10% EtOH) [min⁻¹] | observed first-order rate constant, ring formation ([2]; 10% HPβCD, 50% DMSO) [min⁻¹] | observed first-order rate constant, ring formation ([2]; 10% HPβCD, 50% EtOH) [min⁻¹] | observed first-order rate constant, ring formation ([2]; 10% HPβCD, pure water) [min⁻¹] | further results
CN1C(=O)CN=C(c2ccccc2)c2cc(Cl)ccc21 [Diazepam] | 0.65 | 0.29 | 0.15 | 0.63 | 0.56 | 0.22 | 0.67 | 0.51 | 0.13 | 0.41 | 0.17 | 0.13 | 0.30 | 0.23 | 0.15 |  |  |  |  |  | 
Cc1nnc2n1-c1ccc(Cl)cc1C(c1ccccc1)=NC2 [alprazolam, 8-chloro-1-methyl-6-phenyl-4H-s-triazolo[4,3-a][1,4]benzodiazepine] | 0.89 | 0.60 | 0.23 | 0.96 | 0.84 | 0.33 | 0.94 | 0.79 | 0.25 | 0.81 | 0.41 | 0.42 | 0.82 | 0.56 | 0.33 | 444 | 523 | 857 | 707 | 330 | share of drug in the open form ([1]; aqueous HPβCD solution, pH 3): about 60%; observed first-order rate constant, ring formation ([2]; 10% RMβCD, 10% DMSO): 397 min⁻¹; observed first-order rate constant, ring formation ([2]; 10% RMβCD, 10% EtOH): 490 min⁻¹; observed first-order rate constant, ring formation ([2]; 10% RMβCD, 50% DMSO): 792 min⁻¹; observed first-order rate constant, ring formation ([2]; 10% RMβCD, 50% EtOH): 670 min⁻¹; observed first-order rate constant, ring formation ([2]; 10% RMβCD, pure water): 297 min⁻¹; observed first-order rate constant, ring formation ([2]; 10% SBEβCD, 10% EtOH): 518 min⁻¹; observed first-order rate constant, ring formation ([2]; 10% SBEβCD, 50% DMSO): 936 min⁻¹; observed first-order rate constant, ring formation ([2]; 10% SBEβCD, 50% EtOH): 582 min⁻¹; observed first-order rate constant, ring formation ([2]; 10% SBEβCD, pure water): 311 min⁻¹; observed first-order rate constant, ring formation ([2]; No CD, 10% DMSO): 968 min⁻¹; observed first-order rate constant, ring formation ([2]; No CD, 10% EtOH): 1150 min⁻¹; observed first-order rate constant, ring formation ([2]; No CD, 50% DMSO): 1070 min⁻¹; observed first-order rate constant, ring formation ([2]; No CD, 50% EtOH): 724 min⁻¹; observed first-order rate constant, ring formation ([2]; No CD, pure water): 1420 min⁻¹; alprazolam concentration in the donor phase (saturated) ([3]; aqueous 7% (w/v) SBEβCD, pH 3.3): 1.85 mg/mL; Flux ([3]; donor 7% (w/v) SBEβCD pH 3.3, without increasing the pH): 3.91 × 10^−4 mg/cm^2/h; Flux ([3]; donor 7% (w/v) SBEβCD, increasing the pH from 3.3 to 4.1): 4.56 × 10^−4 mg/cm^2/h; Flux Ratio ([3]; increasing the pH from 3.3 to 4.1): 1.2; Flux Ratio ([3]; without increasing the pH): 1.0
Cc1nnc2n1-c1ccc(Cl)cc1C(c1ccccc1Cl)=NC2 [triazolam, 8-chloro-6-(o-chlorophenyl)-1-methyl-4H-s-triazolo[4,3-a][1,4]benzodiazepine] | 0.51 | 0.09 | 0.00 | 0.71 | 0.25 | 0.00 | 0.75 | 0.23 | 0.00 | 0.33 | 0.01 | 0.00 | 0.53 | 0.08 | 0.00 | 0.0079 | 0.0092 | 0.0114 | 0.0102 | 0.0066 | observed first-order rate constant, ring formation ([2]; 10% RMβCD, 10% DMSO): 0.0078 min⁻¹; observed first-order rate constant, ring formation ([2]; 10% RMβCD, 10% EtOH): 0.0092 min⁻¹; observed first-order rate constant, ring formation ([2]; 10% RMβCD, 50% DMSO): 0.0112 min⁻¹; observed first-order rate constant, ring formation ([2]; 10% RMβCD, 50% EtOH): 0.01 min⁻¹; observed first-order rate constant, ring formation ([2]; 10% RMβCD, pure water): 0.0064 min⁻¹; observed first-order rate constant, ring formation ([2]; 10% SBEβCD, 10% DMSO): 0.0073 min⁻¹; observed first-order rate constant, ring formation ([2]; 10% SBEβCD, 10% EtOH): 0.0082 min⁻¹; observed first-order rate constant, ring formation ([2]; 10% SBEβCD, 50% DMSO): 0.0113 min⁻¹; observed first-order rate constant, ring formation ([2]; 10% SBEβCD, 50% EtOH): 0.0097 min⁻¹; observed first-order rate constant, ring formation ([2]; 10% SBEβCD, pure water): 0.0058 min⁻¹; observed first-order rate constant, ring formation ([2]; No CD, 10% DMSO): 0.0128 min⁻¹; observed first-order rate constant, ring formation ([2]; No CD, 10% EtOH): 0.0131 min⁻¹; observed first-order rate constant, ring formation ([2]; No CD, 50% DMSO): 0.0137 min⁻¹; observed first-order rate constant, ring formation ([2]; No CD, 50% EtOH): 0.0184 min⁻¹; observed first-order rate constant, ring formation ([2]; No CD, pure water): 0.0132 min⁻¹
